Each structure is given as a SMILES string.

The values that follow come from the METLIN SMRT retention time set (Domingo-Almenara et al. 2019).

The series is described as follows: gradient 5% acetonitrile 3 min, to 50% in 2 min, to 85% in 15 min, held 3 min, 100 µL/min. To be noted: column: Zorbax Extend-C18 2.1 x 50 mm; eluents: water / acetonitrile, 0.1% formic acid. The procedure, abridged:
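Data were gathered over 3 months by HPLC coupled to a quadrupole time-of-flight mass spectrometer, operated in positive and negative ionization mode. Mixtures of ~100 pure standards ran on a Zorbax Extend-C18 column (2.1 × 50 mm, 1.8 μm) at 100 μL/min, with water and acetonitrile each containing 0.1% formic acid and dead and dwell volumes of 40 μL and 900 μL. Retention time was read from adduct peaks picked by computer and checked manually.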
For the molecule `Cc1ccccc1NS(=O)(=O)c1cc(-c2[nH]ncc2C(=O)N2CCOCC2)oc1C`, the RP-LC retention time worked out at 678 s. For `CSc1ccc(C(=O)NC2CCCCC2NC(=O)CNC(=O)c2cc(C(F)(F)F)ccc2NC(=O)NC(C)C)cc1` (centres undefined) the value was 924 s; for `CCc1nc(-c2csc(S(=O)(=O)N3CCCC(C(=O)Nc4cccc(C)c4)C3)c2)no1` (centres undefined), 983 s. With `COc1ccc(-c2cc3c(=O)n(Cc4nc(-c5ccccc5OC)oc4C)ccn3n2)cc1` the figure was 975 s; with `CC(NC(=O)C1CCN(S(=O)(=O)c2ccc(C#N)cc2)CC1)C(=O)N1CCCc2ccccc21` (centres undefined), 690 s. In turn, `O=S(=O)(NCc1cccnc1)c1ccc(Cl)c(-c2nnc(-c3ccccc3)o2)c1` came in with an RP-LC retention time of 707 s. With `Cc1nc(OCC(=O)NCc2cccc(Cl)c2)c2c(C)c(C)oc2n1` the figure was 929 s; with `O=S(=O)(c1ccccc1)N1CCN(c2cnn3c(C4CC4)nnc3c2)CC1`, 698 s; with `Cc1cc(=O)n(CC(=O)NCc2ccccc2Cl)c(N(C)Cc2ccccc2)n1`, 762 s.

On to `COCC(=O)Nc1nc(-c2ccc3c(c2)N(C)C(=O)CO3)c(C)s1`, for which the RP-LC retention time was 764 s. Molecule `CC1CCN(C(=O)Cn2nc(C(=O)N3CCCC3)c3ccccc32)CC1` returned an RP-LC retention time of 846 s.

Molecule `O=C(CSc1nnc2scc(-c3ccc(Cl)cc3)n12)NCC1CCCO1` (centres undefined) registered an RP-LC retention time of 675 s.

The molecule `COCC1(O)CCOC2(CCN(Cc3ccc(F)cc3Cl)CC2)C1` (centres undefined) gave an RP-LC retention time of 563 s. With `Cc1cc(C)cc(NC(=O)N(C)CC2CCOCC2)c1` the figure was 776 s; with `CCOc1ccc(-c2noc(CN3C(=O)COc4ccc(S(=O)(=O)CC)cc43)n2)cc1`, 944 s; with `CCc1nnc(-c2ccc(=O)n(CC(=O)N3CCC4(CC3)OCCO4)c2)o1`, 594 s. For `COc1cc(Cl)c(NS(=O)(=O)c2cc(-c3c(C)noc3NC(C)=O)ccc2OC)c(OC)c1` the value was 784 s; for `CCCN(CCC#N)C(=O)CN1CC2=C(C1=O)C(c1ccccc1Cl)NC(=O)N2C` (centres undefined), 634 s; for `Cc1nn(C(C)C(=O)NCCCN2CCCCC2)c(=O)c2c(-n3cccc3)n(-c3ccccc3)nc12` (centres undefined), 700 s. `Cc1ccc2[nH]cc(CCNC(=O)CC3CCN(C(=O)NC4CCCCC4)CC3)c2c1` came in with an RP-LC retention time of 808 s. With `CCCS(=O)(=O)c1nc2ccc(NS(=O)(=O)c3ccc4c(c3)OCCO4)cc2s1` the figure was 888 s; with `O=C(CCc1c(-c2ccc(Cl)cc2)nc2ccccn12)NCCCc1ccccc1`, 719 s. In turn, `CCn1cc(S(=O)(=O)N2CC(c3nc(CCOCc4ccccc4)no3)C2)cn1` showed an RP-LC retention time of 856 s. For `COC(=O)c1sc2ccccc2c1NC(=O)c1cc(C)n(C)n1` the value was 886 s; for `CNc1nccc(N2CCC(CC(=O)NCCCN3CCCC3=O)CC2)n1`, 490 s. For `CCCc1ccc(S(=O)(=O)N2CCC3(CC2)NCCN=C3NCc2ccc(OC)cc2)cc1` the value was 826 s. With `Cc1[nH]c(-c2ccc(Cl)cc2)cc1C(=O)NC1CCCCC1` the figure was 990 s; with `CCOC(=O)c1ccccc1NC(=O)N1CCC2(CC1)NC(=O)c1ccccc1O2`, 922 s. As to `Cc1sc(-c2cc(C(F)(F)F)on2)cc1S(=O)(=O)N1CCN(c2ccc(Cl)cc2)CC1`, the RP-LC retention time is 1400 s.

As for `CCOc1ccc(CNC(=O)c2cn3c(n2)CCCC3)cc1`, the RP-LC retention time stood at 606 s.

In the case of `COc1ccc(-c2csc(NC(=O)c3ccc(C)o3)n2)cc1`, the RP-LC retention time came to 962 s.

Turning to `CN(CC(=O)Nc1c2c(nc3c1CCC3)CCCC2)Cc1ccccc1`, the RP-LC retention time is 562 s. For `Cc1nn(CC(=O)N2CCN(C)CC2)c(=O)c2nc(-c3ccccc3)sc12` the value was 616 s; for `CCCC(=O)Nc1ccc2c(c1)nc(CN1CCN(S(C)(=O)=O)CC1)n2CC`, 608 s. With `O=C(Nc1cccc(Br)c1)N1CCc2nc(-c3ccccc3)ncc2C1` the figure was 1030 s; with `c1ccc(-c2nc(C3CCOCC3)no2)c(OC2CCN(C3CCCC3)C2)c1` (centres undefined), 661 s; with `O=C(NCc1cccnc1)c1cn2ccnc(-c3ccccc3)c2n1`, 599 s. `CCOc1ccc(-c2cc3c(=O)n(Cc4nc(-c5ccc(SC)cc5)no4)ncn3n2)cc1` registered an RP-LC retention time of 1210 s. With `CN(C)S(=O)(=O)c1ccc(-c2nnc(C(=O)NCc3cccnc3)o2)cc1` the figure was 595 s. Turning to `CCc1cc(-c2csc(S(=O)(=O)Nc3ccc(F)c(Cl)c3)c2)on1`, the RP-LC retention time was determined as 1020 s.

On to `COc1cccc(Cn2c(C)c(CNCc3ccc(C)o3)c(C(=O)O)c2C)c1`, for which the RP-LC retention time is 715 s. `CN1C(=O)[C@H]2CN(Cc3cccc(C#N)c3)C[C@H]2C1=O` returned an RP-LC retention time of 531 s. With `COC(=O)c1ccc2c(=O)n(-c3cc(OC)cc(OC)c3)c(N3CCOCC3)nc2c1` the figure was 903 s; with `O=C([C@@H]1C[C@H](F)CN1C(=O)c1cccc(F)c1)N1CCOCC1`, 614 s. For `CCCCN(C)C(=O)Cn1c(=O)c(S(=O)(=O)c2ccccc2)cc2ccccc21` the value was 893 s; for `CCC(C(=O)NC(C)C(=O)N1CCCCC1)n1c2ccccc2c2cnn(C)c(=O)c21` (centres undefined), 670 s; for `Cc1nnc(-c2cccc(Cl)c2)nc1N1CCC(C)CC1`, 986 s. The molecule `CCOC(=O)N1CCC(NC(=O)c2csc(-n3cccc3)n2)CC1` returned an RP-LC retention time of 760 s. Take `Cn1nc(C2CCN(S(=O)(=O)c3cc(F)cc(F)c3)CC2)n(C2CCCC2)c1=O`: the RP-LC retention time came to 893 s. For `CC1CCN(CCNC(=O)c2nnc(-c3ccc(S(=O)(=O)N4CCOCC4)cc3)o2)CC1` the value was 629 s. For `CCCNC(=O)N1N=C(c2ccc(N)cc2)c2cc3c(cc2C1C)OCO3` (centres undefined) the value was 854 s; for `CCOc1ccc(CNc2nc3ccncc3n(C(C)C)c2=O)cc1OC`, 584 s. With `CN(C(=O)Cc1nnc2cc(-c3nc(C4CC4)no3)ccn12)C1CCCCC1` the figure was 1010 s; with `CN(C)c1ccc(CNC(=O)C2(c3ccc(NS(C)(=O)=O)cc3)CCCCC2)cc1`, 672 s; with `CCCn1cnc2cc(CNC(=O)C(C)c3ccccc3)ccc21` (centres undefined), 631 s. For `COc1ccc(C2(C(=O)N3CCC(Cc4nc(-c5ccccc5)n[nH]4)C3)CC2)cc1` (centres undefined), the RP-LC retention time worked out at 734 s. Turning to `O=C(CN1CCc2ccccc2C1C(=O)N1CCCCC1)NCc1ccccn1` (centres undefined), the RP-LC retention time came to 755 s. `O=C(Nc1ccccc1F)N1CCCC1c1nc(-c2ccc(F)cc2F)no1` (centres undefined): the RP-LC retention time was determined as 937 s.

Regarding `CC(C)c1cccc(NC(=O)Cn2ccc3sccc3c2=O)c1`, the RP-LC retention time is 878 s. With `CC(C)(C)C(=O)NC1CCN(C(=O)C2CC2)C1` (centres undefined) the figure was 623 s; with `Cn1nnc2ccc(-c3noc(-c4ccc(F)cc4)n3)cc21`, 981 s.

Take `Cc1cccc(-n2c(=O)c3c(cc(C)n3C)n(CC(=O)Nc3ccc(C)cc3C)c2=O)c1`: the RP-LC retention time turned out to be 912 s. For `Cc1nn(-c2ccc(C(=O)NCc3ccc4c(c3)OCO4)cc2)c2c1C(=O)CCC2` the value was 780 s. Molecule `O=c1ccc(-c2cccs2)nn1CCNS(=O)(=O)c1ccc(F)c(Cl)c1` registered an RP-LC retention time of 796 s. With `CC1CCN(C(=O)Cn2nc(-c3nc(-c4cccc(Cl)c4)no3)ccc2=O)CC1` the figure was 1040 s; with `CCc1nnc(NS(=O)(=O)c2ccc(NC(=O)c3ccco3)cc2)s1`, 680 s; with `CCN1C=C(C(=O)OCc2cc(F)cc(F)c2)C(C)=NS1(=O)=O`, 926 s. For `O=C(Nc1nccs1)C1CCCN(S(=O)(=O)c2cc(-c3noc(C4CCCC4)n3)cs2)C1` (centres undefined) the value was 1060 s. With `COc1ccc(Cc2nc3nccc(-c4ccco4)n3n2)cc1` the figure was 855 s; with `Cc1[nH]c(C(=O)N2CCCC(C(=O)NCCCN3CCOCC3)C2)c(C)c1C` (centres undefined), 597 s. `c1ccc(Sc2ncccn2)nc1` showed an RP-LC retention time of 662 s.

For `O=C(NCc1ccc2c(c1)OCO2)c1nc(-c2ccnc(N3CCCCC3)c2)no1`, the RP-LC retention time is 691 s. For `Cc1ccccc1OCC(=O)N1CCC2(CC1)NC(=O)N(Cc1ccccc1Cl)C2=O` the value was 909 s; for `O=C(Nc1ccc(Cl)cc1)c1cn2c(n1)CCCC2`, 640 s; for `CC(C)(C)NC(=O)N1CCC(CNC(=O)c2ccc3nsnc3c2)CC1`, 679 s.

The molecule `CCC(C)NC(=O)Cn1cccc(-c2nc(-c3ccc(C)cc3)no2)c1=O` (centres undefined) registered an RP-LC retention time of 814 s.

As to `O=C(CN1C(=O)C2CCCCN2c2ccc(C(=O)N3CCCC3)cc21)NCc1ccccn1` (centres undefined), the RP-LC retention time turned out to be 626 s.

Take `Cc1cc(C2CCCN2C(=O)Nc2ccc(C)c(F)c2)on1` (centres undefined): the RP-LC retention time was 822 s.

Molecule `COc1ccc(-c2cc(C(=O)N3CCN(S(=O)(=O)c4ccc(F)c(C)c4)CC3)[nH]n2)cc1` returned an RP-LC retention time of 910 s.
